{"source": "patent US10899738B2", "about": "(THE REGENTS OF THE UNIVERSITY OF MICHIGAN, priority 2016, dated 2021)", "data": [{"target": "menin protein (Homo sapiens (Human), UniProt O00255)", "sequence (O00255 whole entry)": "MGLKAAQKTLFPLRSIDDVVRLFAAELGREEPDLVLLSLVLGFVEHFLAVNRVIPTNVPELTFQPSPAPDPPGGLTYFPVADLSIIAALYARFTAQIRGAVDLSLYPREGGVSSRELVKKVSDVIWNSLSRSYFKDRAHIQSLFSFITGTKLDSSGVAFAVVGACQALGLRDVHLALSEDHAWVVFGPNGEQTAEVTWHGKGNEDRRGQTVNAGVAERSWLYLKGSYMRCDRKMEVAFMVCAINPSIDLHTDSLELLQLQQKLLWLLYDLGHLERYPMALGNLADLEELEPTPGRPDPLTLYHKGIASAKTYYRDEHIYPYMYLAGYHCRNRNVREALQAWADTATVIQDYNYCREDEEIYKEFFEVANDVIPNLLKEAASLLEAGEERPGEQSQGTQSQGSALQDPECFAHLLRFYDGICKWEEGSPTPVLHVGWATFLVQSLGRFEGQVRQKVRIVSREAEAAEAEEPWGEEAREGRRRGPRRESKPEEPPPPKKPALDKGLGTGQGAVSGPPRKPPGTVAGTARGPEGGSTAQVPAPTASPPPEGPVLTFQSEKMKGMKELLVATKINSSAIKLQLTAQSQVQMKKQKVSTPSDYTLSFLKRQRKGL", "experiment": "biochemical", "assay_type": "binding", "settings": "FP competitive binding; menin protein 4 nM, FAM-MM2 probe 2 nM; read-out: Menin Binding Affinity IC50", "in_short": "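Test compounds displaced FAM-MM2 (2 nM) from 4 nM menin after 30 min equilibration at room temperature in PBS buffer containing bovine γ-globulin, 4% DMSO and Triton X-100. Binding was followed by fluorescence polarization. Competition curves were fitted by nonlinear regression to give IC50 and Ki.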", "units": {"IC50": "µM"}, "values": [{"smiles": "CO[C@H]1CCC[C@@H]1C1(C2CCN(CCCOc3ccc(C#N)cc3)CC2)CN(C)Cc2ccccc21", "note": "(mixture of isomers) [compound 325, rac-4-(3-(4-(4-((1R,2S)-2-methoxycyclopentyl)-2-methyl-1,2,3,4-tetrahydroisoquinolin-4-yl)piperidin-1-yl)propoxy)benzonitrile]", "IC50": 1.8}, {"smiles": "CNC(=O)O[C@H]1CCC[C@@H]1C(CN1CCCC1)(c1ccccc1)C1CCN(CC2CN(c3ccc(S(=O)(=O)c4ccccc4)cc3)C2)CC1", "note": "(mixture of isomers) [compound 361, rac-(1S,2R)-2-(1-phenyl-1-(1-((1-(4-(phenylsulfonyl)phenyl)azetidin-3-yl)methyl)piperidin-4-yl)-2-(pyrrolidin-1-yl)ethyl)cyclopentyl methylcarbamate]", "IC50": 0.063}, {"smiles": "CCC(=O)O[C@@H]1CCC[C@H]1C(C#N)(c1ccccc1)C1CCN(CC2CN(c3ccc(S(=O)(=O)c4ccncc4)cc3)C2)CC1", "note": "(mixture of isomers) [compound 196, rac-(1R,2S)-2-(cyano(phenyl)(1-((1-(4-(pyridin-4-ylsulfonyl)phenyl)azetidin-3-yl)methyl)piperidin-4-yl)methylcyclopentyl propionate]", "IC50": 1}, {"smiles": "O=C(CN1CCC(C2(C3CCCC3)NCCc3ccccc32)CC1)N1Cc2ccccc2C1", "note": "(stereo not drawn) [compound 82, 2-(4-(1-cyclopentyl-1,2,3,4-tetrahydroisoquinolin-1-yl)piperidin-1-yl)-1-(isoindolin-2-yl)ethan-1-one]", "IC50": 6.2}, {"smiles": "N#CC(c1ccccc1)(C1CCN(CC2CN(c3ccc(S(=O)(=O)c4ccncc4)cc3)C2)CC1)[C@H]1CCC[C@@H]1OC(=O)C1CC1", "note": "(mixture of isomers) [compound 197, rac-(1S,2R)-2-(cyano(phenyl)(1-((1-(4-(pyridin-4-ylsulfonyl)phenyl)azetidin-3-yl)methyl)piperidin-4-yl)methyl)cyclopentyl cyclopropanecarboxylate]", "IC50": 0.018}, {"smiles": "CCCC(=O)N1CCCCC1C1(C2CCN(CCCOc3ccc(C#N)cc3)CC2)CN(C)Cc2ccccc21", "note": "(stereo not drawn) [compound 302, 4-(3-(4-(4-(1-butyrylpiperidin-2-yl)-2-methyl-1,2,3,4-tetrahydroisoquinolin-4-yl)piperidin-1-yl)propoxy)benzonitrile]", "IC50": 6.5}, {"smiles": "Cc1nccn1CC(c1ccccc1)(C1CCCC1)C1CCN(CC2CN(c3ccc(S(=O)(=O)C4CC4)cc3)C2)CC1", "note": "(stereo not drawn) [compound 42, 4-(1-cyclopentyl-2-(2-methyl-1H-imidazol-1-yl)-1-phenylethyl)-1-((1-(4-(cyclopropylsulfonyl)phenyl)azetidin-3-yl)methyl)piperidine]", "IC50": 0.029}, {"smiles": "CNC(=O)C[C@@H]1CCC[C@H]1C(C#N)(c1ccccc1)C1CCN(CC2CN(c3ccc(S(=O)(=O)c4ccncc4)cc3)C2)CC1", "note": "(mixture of isomers) [compound 339, rac-2-((1S,2R)-2-(cyano(phenyl)(1-((1-(4-(pyridin-4-ylsulfonyl)phenyl)azetidin-3-yl)methyl)piperidin-4-yl)methyl)cyclopentyl)-N-methylacetamide]", "IC50": 5.2}, {"smiles": "CC1CN(CCCOc2ccc(C#N)cc2)CCC1C(C#N)(c1ccccc1)C1CCCC1", "note": "(stereo not drawn) [compound 120, 4-(3-(4-(cyano(cyclopentyl)(phenyl)methyl)-3-methylpiperidin-1-yl)propoxy)benzonitrile]", "IC50": 5.7}, {"smiles": "N#Cc1ccc(OCCCN2CCC(C3(C4CCCC4)NCCc4ccc(F)cc43)CC2)cc1", "note": "(stereo not drawn) [compound 22, 4-(3-(4-(1-cyclopentyl-7-fluoro-1,2,3,4-tetrahydroisoquinolin-1-yl)piperidin-1-yl)propoxy)benzonitrile]", "IC50": 0.473}, {"smiles": "N#Cc1ccc(OCCN2CCC(CC3(C4CCCC4)NCCc4ccccc43)CC2)cc1", "note": "(stereo not drawn) [compound 105, 4-(2-(4-((1-cyclopentyl-1,2,3,4-tetrahydroisoquinolin-1-yl)methyl)piperidin-1-yl)ethoxy)benzonitrile]", "IC50": 20.2}, {"smiles": "CO[C@@H]1CCC[C@H]1C1(C2CCN(CCCOc3ccc(C#N)cc3)CC2)CN(C)Cc2ccccc21", "note": "(mixture of isomers) [compound 326, rac-4-(3-(4-(4-((1S,2R)-2-methoxycyclopentyl)-2-methyl-1,2,3,4-tetrahydroisoquinolin-4-yl)piperidin-1-yl)propoxy)benzonitrile]", "IC50": 2.7}]}]}
